# Test results published in patent US4016176A, “Esters of 4-hydroxy-2,9-dioxatricyclo[4.3.1.0^3,7 ] decanes and processes for their production” (Kali-Chemie Pharma GmbH, priority 1973, dated 1977).
# What was measured:
# [1] = system: mouse; assay: ataxia in mice; format: in vivo; settings: mouse; for C - ataxia: dose required to produce ataxia in a mouse: Table 3
# Excerpt: (§1) In the Table 3 which follows are listed results of tests pertaining to the effectiveness of various compounds that are disclosed herein. The results are included in the several columns under letters whose significance is as follows:
# C - ataxia: Dose in milligrams per kilogram of body weight required to produce ataxia in a mouse.
# [2] = system: mouse; assay: prolongation of narcosis produced by hexobarbital in mice; format: in vivo; settings: for prolongation of narcosis produced by hexobarbital (in words): comparison of epimers; for E - dose which prolongs narcosis produced by hexobarbital in a mouse by a factor of 4: factor of 4, Table 3
# Excerpt: (§2) In the Table 3 which follows are listed results of tests pertaining to the effectiveness of various compounds that are disclosed herein.
# [3] = system: mice; assay: narcosis (lateral position) in mice; format: in vivo, mouse; settings: mouse; for narcosis (in words): comparison of epimers; for ED50: ip, 0.05 h, read-out: D - narcosis (lateral position): dose (ED50) which produces narcosis for 3 minutes in 50% of the mice, intraperitoneal, narcosis for 3 minutes, Table 3
# Excerpt: as §2
# [4] = system: mouse; assay: sedative effect, comparison of esters with 4-hydroxy compounds; format: in vivo; settings: for sedative effect or ataxia relative to the 4-hydroxy compound (in words): 4β-esters compared with Compound No. 1246; for sedative effect relative to the corresponding hydroxy compound (in words): compared with corresponding hydroxy compounds, Compound No. 1561
# Excerpt: The effectiveness of the 2,9-dioxatricyclo[4.3.1.0^3,7 ]decanes of the present invention as narcotics is obviously sterospecifically related to the 4αconfiguration. Particularly surprising is the narcotic effect of the esters as compared to the 4-hydroxy compounds. Whereas nearly 300 or even 800 milligrams per kilogram of the 4-hydroxy compounds are required to induce narcosis, the required doses of the carbamates is only at most 100 milligrams per kilogram and their toxicity is in general very low.
# [5] = system: mice; assay: acute toxicity (LD50) in mice; format: in vivo, mouse; settings: for relative toxicity compared with the 4-hydroxy compound (in words): 4β-esters compared with Compound No. 1246; for B - lethal dose (LD50) to mice, intraperitoneally: intraperitoneal; for B - lethal dose (LD50) to mice, intraperitoneally / A - lethal dose (LD50) to mice, per os: Table 3
# Excerpt: as §1
# (§3) A - lethal dose (LD50) to mice in milligrams per kilogram of body weight of the mouse when administered per os.
# (§4) B - lethal dose (LD50) to mice in milligrams per kilogram of body weight of the mouse when administered intraperitoneally.
# (§5) A. lethal dose (LD50) to mice in milligrams per kilogram body weight of the mouse when administered per os.
# (§6) B. lethal dose (LD50) to mice in milligrams per kilogram body weight of the mouse administered intraperitoneally.
# (§7) The values specified in Tables 4 and 5 hereinafter refer to milligrams per kilogram of body weight of the mouse.
# (§8) Tests performed in accordance with the procedure described by Campbell and Richter in Acta Pharmacol. et Toxicol., vol. […] This is indicated by the results that are reported in Table 5 in which the headings A and F have the same significance as hereinbefore while the values in the column heading L pertain to the dose in milligrams per kilogram of body weight that was required to produce a lowering of the rectal temperature, which are values indicative of the depressant effect of a compound upon the central nervous system.
# [6] = system: white mice; assay: ptosis test (Campbell and Richter screening); format: in vivo, mouse; settings: for dose producing ptosis relative to the 4-hydroxy compound (in words): compared with Compound No. 1561; for F ptosis test: mouse, Table 5
# Excerpt: The sedative and hypnotic effectiveness of the compounds of the invention were also ascertained by screening tests with white mice described by Campbell and Richter in Acta Pharmacol. et Toxicol. 25 (1967) page 345. In Table 4 the results of various specific screening tests are listed. These tests were as follows:
# as §7, §8
# [7] = acute toxicity (LD50) in mice; format: in vivo, mouse; settings: mouse, in vivo, mouse
# Excerpt: as §1, §3, §4, §5, §6, §7, §8
# [8] = system: mouse; assay: lowering of the rectal temperature in mice; format: in vivo; settings: mouse; Table 5; read-out: L dose required to produce a lowering of the rectal temperature
# Excerpt: as §7, §8
# [9] = acute toxicity of Example 17 compound, p.o.; settings: mouse, in vivo, po
# [10] = narcosis, Example 17 compound; settings: in vivo
# [11] = system: white mice; assay: spasmolytic effect
# [12] = system: dogs; assay: narcosis in dogs, intravenous; format: in vivo, dog; settings: Canis lupus familiaris, narcosis for 1 hour, read-out: dose required to produce a narcosis that persisted for 1 hour
# Protocol: In dogs a dose of 17.5 milligrams of the compound per kilogram of body weight administered intravenously was required to produce a narcosis that persisted for 1 hour.
# [13] = acute toxicity in cats, intravenous; settings: cat, in vivo, read-out: lethal dose (LD50) for cats
# Protocol: (§9) The toxicity and narcotic effectiveness of this compound were determined in tests with cats and dogs. […] The intravenous administration of a dose equivalent to 5 milligrams per kilogram of body weight to cats produced a narcosis that persisted for 10 minutes, whereas doses of 10 and 15 milligrams per kilogram produced narcoses that persisted for 25 and 60 minutes, respectively.
# [14] = system: cats; assay: narcosis in cats, intravenous; format: in vivo, cat
# Protocol: as §9
# [15] = po, per os, Table 5, read-out: A lethal dose (LD50) to mice, per os
# [16] = po, per os, Table 3, read-out: A - lethal dose (LD50) to mice, per os
structure (smiles),measurement,setting,value
"COC1OC2OC3(C)C(OC(=O)NC(C)C)CC(C2C)C13 (stereo not drawn) [Compound No. 2057, 4β-(N-Isopropylcarbamyloxy)-3,10-dimethyl-8-methoxy-2,9-dioxatricyclo[4.3.1.0^3,7]decane]",dose required for producing ataxia,[1],147 milligrams per kilogram of body weight
same,C - ataxia: dose required to produce ataxia in a mouse,[1],147 milligrams per kilogram of bod
same,prolongation of narcosis produced by hexobarbital (in words),[2],produces neither a narcosis nor a prolongation of narcosis produced by hexobarbital
same,narcosis (in words),[3],produces neither a narcosis nor a prolongation of narcosis produced by hexobarbital
same,sedative effect or ataxia relative to the 4-hydroxy compound (in words),[4],distinct increase in the sedative effect or ataxia
same,relative toxicity compared with the 4-hydroxy compound (in words),[5],reduction in the relative toxicity
same,"B - lethal dose (LD50) to mice, intraperitoneally",[5]; mouse,1000 milligrams per kilogram of bod
same,"A - lethal dose (LD50) to mice, per os",[5]; mouse,> 1470 milligrams per kilogram of bod
CCC(=O)OC1CC2C(C)C3OC(OC)C2C1(C)O3 (stereo not shown) [compound 2081],C - ataxia: dose required to produce ataxia in a mouse,[1],50 milligrams per kilogram of bod
same,E - dose which prolongs narcosis produced by hexobarbital in a mouse by a factor of 4,[2],316 milligrams per kilogram of bod
same,dose producing ptosis relative to the 4-hydroxy compound (in words),[6],one-fourth or one-half of the dose required of the 4-hydroxy-compound
same,F ptosis test,[6],200 milligrams per kilogram of bod
same,sedative effect relative to the corresponding hydroxy compound (in words),[4],greater sedative effect than the corresponding hydroxy compounds
same,"B - lethal dose (LD50) to mice, intraperitoneally",[5]; mouse,1379 milligrams per kilogram of bod
same,"A - lethal dose (LD50) to mice, per os",[5]; mouse,> 1470 milligrams per kilogram of bod
same,LD50,[7]; [15],> 1470 mg/kg
same,minimal effective dose,[8],100 mg/kg
"COC1OC2OC3(C)C(OC(C)=O)CC(C2C)C13 (stereo not drawn) [Compound No. 2080, 4α-Acetoxy-8-methoxy-3,10-dimethyl-2,9-dioxatricyclo[4.3.1.0^3,7]decane]",C - ataxia: dose required to produce ataxia in a mouse,[1],50 milligrams per kilogram of bod
same,dose producing ptosis relative to the 4-hydroxy compound (in words),[6],one-fourth or one-half of the dose required of the 4-hydroxy-compound
same,F ptosis test,[6],100 milligrams per kilogram of bod
same,sedative effect relative to the corresponding hydroxy compound (in words),[4],greater sedative effect than the corresponding hydroxy compounds
same,"B - lethal dose (LD50) to mice, intraperitoneally",[5]; mouse,> 1000 milligrams per kilogram of bod
same,"A - lethal dose (LD50) to mice, per os",[5]; mouse,> 1470 milligrams per kilogram of bod
same,LD50,[7]; [15],1470 mg/kg
same,minimal effective dose,[8],400 mg/kg
CCNC(=O)OC1CC2C(C)C3OC(OC)C2C1(C)O3 (stereo not shown) [compound 1767],C - ataxia: dose required to produce ataxia in a mouse,[1],400 milligrams per kilogram of bod
same,sedative effect or ataxia relative to the 4-hydroxy compound (in words),[4],distinct increase in the sedative effect or ataxia
same,relative toxicity compared with the 4-hydroxy compound (in words),[5],reduction in the relative toxicity
same,"B - lethal dose (LD50) to mice, intraperitoneally",[5]; mouse,890 milligrams per kilogram of bod
same,"A - lethal dose (LD50) to mice, per os",[5]; mouse,> 1500 milligrams per kilogram of bod
CCC(=O)OC1CC2C(C)C3OC(OC)C2C1(C)O3 (stereo not shown) [compound 2044],C - ataxia: dose required to produce ataxia in a mouse,[1],147 milligrams per kilogram of bod
same,sedative effect or ataxia relative to the 4-hydroxy compound (in words),[4],distinct increase in the sedative effect or ataxia
same,relative toxicity compared with the 4-hydroxy compound (in words),[5],reduction in the relative toxicity
same,"B - lethal dose (LD50) to mice, intraperitoneally",[5]; mouse,436 milligrams per kilogram of bod
same,LD50,[7]; [16],1470 mg/kg
COC1OC2OC3(C)C(OC(C)=O)CC(C2C)C13 (stereo not shown) [compound 2045],C - ataxia: dose required to produce ataxia in a mouse,[1],200 milligrams per kilogram of bod
same,E - dose which prolongs narcosis produced by hexobarbital in a mouse by a factor of 4,[2],316 milligrams per kilogram of bod
same,sedative effect or ataxia relative to the 4-hydroxy compound (in words),[4],distinct increase in the sedative effect or ataxia
same,relative toxicity compared with the 4-hydroxy compound (in words),[5],reduction in the relative toxicity
same,LD50,"[7]; ip, intraperitoneal, Table 3, read-out: B - lethal dose (LD50) to mice, intraperitoneally",1000 mg/kg
same,LD50,[7]; [16],1470 mg/kg
"COC1OC2OC3(C)C(OC(=O)Nc4ccccc4)CC(C2C)C13 (stereo not drawn) [Example 17, 4β-(N-Phenylcarbamyloxy)-8-methoxy-3,10-dimethyl-2,9-dioxatricyclo[4.3.1.0^3,7]decane]",LD50,[9],1500 mg/kg
same,narcosis (in words),[10],did not produce narcosis
same,spasmolytic ED50 relative to the ED100 of atropine,[11]; % of the ED100 of atropine,0.2%
same,spasmolytic ED50 relative to the ED100 of papaverine,[11]; % of the ED100 of papaverine,0.1%
"CCNC(=O)OC1CC2C(C)C3OC(OC)C2C1(C)O3 (stereo not drawn) [Compound No. 2026, 4α-(N-Ethylcarbamyloxy)-8-methoxy-3,10-dimethyl-2,9-dioxatricyclo[4.3.1.0^3,7]decane]",C - ataxia: dose required to produce ataxia in a mouse,[1],68.1 milligrams per kilogram of bod
same,E - dose which prolongs narcosis produced by hexobarbital in a mouse by a factor of 4,[2],31.6 milligrams per kilogram of bod
same,ED50,[3],100 mg/kg
same,sedative effect relative to the corresponding hydroxy compound (in words),[4],greater sedative effect than the corresponding hydroxy compounds
same,"B - lethal dose (LD50) to mice, intraperitoneally",[5]; mouse,297 milligrams per kilogram of bod
same,"A - lethal dose (LD50) to mice, per os",[5]; mouse,518 milligrams per kilogram of bod
"C=C1C2OC(OC)C3C1CC(OC(=O)NCC)C3(C)O2 (stereo not drawn) [Compound No. 2076, 4α-(N-Ethylcarbamyloxy)-8-methoxy-3-methyl-10-methylene-2,9-dioxatricyclo[4.3.1.0^3,7]decane]",doses effective in producing ataxia (in words),[1]; 2067 versus 2076,identical doses are effective in producing ataxia
same,C - ataxia: dose required to produce ataxia in a mouse,[1],50 milligrams per kilogram of bod
same,minimal effective dose,[12],17.5 mg/kg
same,prolongation of narcosis produced by hexobarbital (in words),[2],does not prolong narcosis produced by hexobarbital
same,ED50,[3],< 100 mg/kg
same,narcosis (in words),[3],produces narcosis
same,LD50,[13],226 mg/kg
same,"B - lethal dose (LD50) to mice, intraperitoneally",[5]; mouse,527 milligrams per kilogram of bod
same,"A - lethal dose (LD50) to mice, per os",[5]; mouse,1025 milligrams per kilogram of bod
same,toxicity of the epimers (in words),"[5]; mouse, 2067 versus 2076",substantially the same toxicity
same,duration of narcosis,[14]; 5 mg/kg,10 min
same,duration of narcosis,[14]; 10 mg/kg,25 min
same,duration of narcosis,[14]; 15 mg/kg,60 min
